This note sets out measurements from US20260250250A1, “3-(SULPHONYL OR SULFONIMIDOYL)PROP-2-EN-1-YL]-2-OXO-1,2-DIHYDROPYRIDINE-3-CARBOXAMIDE DERIVATIVES” (Flinder Therapeutics B.V., priority 2022, published 2026).

SMILES strings stand for the structures. A value given as a limit tells only on which side of the number the result lay.

Experiment [1] has as its system bladder carcinoma RT4 cell line. Description: TNF-α-induced cytotoxicity assay (CellTiter-Glo viability). The settings on record: Homo sapiens, RT-4, 72 h. Type of experiment: cell-based. As for the experimental part: A viability assay, using bladder carcinoma RT4 cell line, was used for identifying the potential inhibitory effect of tested compounds on HOIP activity. The viability was determined by CellTiter-Glo Luminescent Cell Viability Assay (G7571, Promega) which measures the ability of generating a luminescent signal proportional to the amount of ATP present in living cells. The assay consists of a few steps: • a) the cells were routinely sub cultivated twice a week with standard complete growth medium composition; • b) cells were preparated for the assay by creating a cell suspension at the density of 0.05 mln cells/mL and dispensed into plates (ViewPlate-384, PerkinElmer) resulting in 1000 cells/well; • c) cells were stimulated with 1.25 ng/mL TNFα and with compounds and incubated for 72 h at 37° C. in the atmosphere with 5% CO2; and • d) for detection cytotoxicity was measured with CellTiter-Glo® Luminescent Cell Viability Assay based on the method described by the manufacturer.
A general note: Cellular ATP, detected with luciferase, serves as a proxy for viable cell number.

The subject of experiment [2] is NF-κB signaling pathway. Description: Cell-based dual luciferase NF-κB reporter assay (HEK293 cells, TNF stimulated). The note with it: Homo sapiens, HEK293. As for the experimental part:
Dual-luciferase reporter assay was designed to find inhibitors of HOIP affecting NF-κB signaling pathway. The assay was performed in HEK293 cells which were transfected with plasmids coding for Firefly and NanoLuc luciferases. The NanoLuc luciferase plasmid contains NF-κB response element which determines its expression.
The assay was run following standard dual-luciferase protocols. The assay consists of a few steps: • compounds were dispensed at a concentration range: 100-0.005 μM with a final DMSO concentration of 1% of final volume (25 μL); • cells were stimulated after 30 min with 2.5 ng/mL TNF; and • after 6 h Firefly and NanoLuc luciferase activities are determined according to the procedure described by the manufacturer of Nano-Glo Dual-Luciferase Reporter Assay System.
Background: A reporter such as luciferase makes a cellular process visible.

For experiment [3], the target named is T1, human E3 ubiquitin-protein ligase RNF31 (HOIP) (Homo sapiens, UniProt Q96EP0).
T1 sequence (Q96EP0 695-1072 limits assumed): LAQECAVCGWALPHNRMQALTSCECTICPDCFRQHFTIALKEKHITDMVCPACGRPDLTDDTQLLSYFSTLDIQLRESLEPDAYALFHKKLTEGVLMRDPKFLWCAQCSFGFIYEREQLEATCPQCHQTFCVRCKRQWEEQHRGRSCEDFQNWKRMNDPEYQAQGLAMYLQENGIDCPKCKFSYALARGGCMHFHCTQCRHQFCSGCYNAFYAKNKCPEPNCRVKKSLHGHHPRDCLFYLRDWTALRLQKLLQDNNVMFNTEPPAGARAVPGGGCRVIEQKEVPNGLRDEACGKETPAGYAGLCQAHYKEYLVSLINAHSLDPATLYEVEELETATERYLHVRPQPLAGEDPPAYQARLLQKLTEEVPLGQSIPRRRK
Description: Cell-free HTRF-based HOIP inhibition assay. In kind it is biochemical. As for the experimental part:
This assay was performed in the following steps: • a) synthesis of recombinant fragment of human E3 ubiquitin-protein ligase RNF31 (HOIP), expressed with purity >90% in E. coli system (the protein was prepared as 1 mg/mL stock in a standard formulation); • b) incubation of the compounds in a typical concentration range: 100-0.005 μM, at a final DMSO conc. 1% with a mixture of HOIP and ubiquitin activating enzyme E1 at 25° C., for 1 h at 25° C.; • c) followed by addition of a ubiquitination solution including E2 and substrates (the reaction proceeds for 2.5 h at 25° C.); and • d) HTRF detection was performed using a PHERAstar FSX (BMG Labtech) plate reader (excitation at 337 nm, dual emissions at 665 and 620 nm).

In general, IC50 refers to the concentration that inhibits the measured activity by half. Higher therefore signals lower potency. In the case of `O=C(NC/C=C/S(=O)(=O)c1ccc(Br)cc1)c1cc2c([nH]c1=O)CCCC2` [Example 5, N-[(2E)-3-(4-bromobenzenesulfonyl)prop-2-en-1-yl]-2-oxo-1,2,5,6,7,8-hexahydroquinoline-3-carboxamide], the IC50 in experiment [1] was not above 1000 nM; in experiment [2], not above 1000 nM; in experiment [3], not above 100 nM.

Consider `N=S(=O)(/C=C/CNC(=O)c1cc2c([nH]c1=O)CCCC2)c1ccc(F)cc1` (stereo not drawn) [Example 6, N-[(2E)-3-[(4-fluorophenyl)(imino)oxo-λ^6-sulfanyl]prop-2-en-1-yl]-2-oxo-1,2,5,6,7,8-hexahydroquinoline-3-carboxamide], for which the IC50 in experiment [1] was not above 1000 nM; in experiment [2] it was not above 10000 nM; in experiment [3] it was not above 1000 nM.

Consider `O=C(NC/C=C/S(=O)(=O)c1ccccc1)c1cc2c([nH]c1=O)CCCC2` [Example 7, N-[(2E)-3-(benzenesulfonyl)prop-2-en-1-yl]-2-oxo-1,2,5,6,7,8-hexahydroquinoline-3-carboxamide], for which the IC50 in experiment [1], in experiment [2] and in experiment [3] was not above 1000 nM each time.

Consider `O=C(NC/C=C/S(=O)(=O)c1ccccc1)c1cc2c([nH]c1=O)CCN(Cc1ccccc1)C2` [Example 8, N-[(2E)-3-(benzenesulfonyl)prop-2-en-1-yl]-6-benzyl-2-oxo-1,2,5,6,7,8-hexahydro-1,6-naphthyridine-3-carboxamide], for which the IC50 in experiment [1], in experiment [2] and in experiment [3] was not above 1000 nM each time.

As for `O=C(NC/C=C\S(=O)(=O)c1ccccc1)c1cc2c([nH]c1=O)CCCC2` [Example 9, N-[(2Z)-3-(benzenesulfonyl)prop-2-en-1-yl]-2-oxo-1,2,5,6,7,8-hexahydroquinoline-3-carboxamide], the values for the IC50 in experiment [1], in experiment [2] and in experiment [3] were not above 10000 nM, not above 10000 nM and not above 1000 nM, respectively.

`CC(C)(C)OC(=O)N1CCc2[nH]c(=O)c(C(=O)NC/C=C/S(=O)(=O)c3ccccc3)cc2C1` [Example 10, tert-butyl 3-{[(2E)-3-(benzenesulfonyl)prop-2-en-1-yl]carbamoyl}-2-oxo-1,2,5,6,7,8-hexahydro-1,6-naphthyridine-6-carboxylate]: the IC50 in experiment [1] is not above 10000 nM; in experiment [2], not above 1000 nM; in experiment [3], not above 100 nM.

Consider `O=C(NC/C=C/S(=O)(=O)c1ccc(Cl)cn1)c1cc2c([nH]c1=O)CCCC2` [Example 11, N-[(2E)-3-[(5-chloropyridin-2-yl)sulfonyl]prop-2-en-1-yl]-2-oxo-1,2,5,6,7,8-hexahydroquinoline-3-carboxamide], for which the IC50 is not above 1000 nM in experiment [1], not above 1000 nM in experiment [2] and not above 100 nM in experiment [3].

`O=C(NC/C=C/S(=O)(=O)c1ccccc1)c1cc(-c2ccccc2)c[nH]c1=O` [Example 12, N-[(2E)-3-(benzenesulfonyl)prop-2-en-1-yl]-2-oxo-5-phenyl-1,2-dihydropyridine-3-carboxamide]: the IC50 in experiment [1] was not above 10000 nM; in experiment [2], not above 10000 nM; in experiment [3], not above 1000 nM.

For the compound `O=C(NC/C=C/S(=O)(=O)c1ccc(F)cc1)c1cc2c([nH]c1=O)CCCC2` [Example 16, N-[(2E)-3-(4-fluorobenzenesulfonyl)prop-2-en-1-yl]-2-oxo-1,2,5,6,7,8-hexahydroquinoline-3-carboxamide], the IC50 was not above 1000 nM in experiment [1], not above 1000 nM in experiment [2] and not above 100 nM in experiment [3].

Regarding `COc1ccc(S(=O)(=O)/C=C/CNC(=O)c2cc3c([nH]c2=O)CCCC3)cc1F` [Example 19, N-[(2E)-3-(3-fluoro-4-methoxybenzenesulfonyl)prop-2-en-1-yl]-2-oxo-1,2,5,6,7,8-hexahydroquinoline-3-carboxamide], the IC50 in experiment [1] is not above 1000 nM; in experiment [2], not above 1000 nM; in experiment [3], not above 100 nM.

For `O=C(NC/C=C/S(=O)(=O)c1ccc(Cl)cc1)c1cc2c([nH]c1=O)CCCC2` [Example 21, N-[(2E)-3-(4-chlorobenzenesulfonyl)prop-2-en-1-yl]-2-oxo-1,2,5,6,7,8-hexahydroquinoline-3-carboxamide], the IC50 in experiment [1] is not above 1000 nM; in experiment [2] it was not above 100 nM; in experiment [3], not above 100 nM.

On to `CC(C)(C)OC(=O)N1CCc2[nH]c(=O)c(C(=O)NC/C=C/S(=O)(=O)c3ccccc3F)cc2C1` [Example 22, tert-butyl 3-{[(2E)-3-(2-fluorobenzenesulfonyl)prop-2-en-1-yl]carbamoyl}-2-oxo-1,2,5,6,7,8-hexahydro-1,6-naphthyridine-6-carboxylate], for which the figures for the 50% inhibitory concentration (IC50) in experiment [1], in experiment [2] and in experiment [3] were not above 1000 nM, not above 1000 nM and not above 100 nM, respectively.

For `O=C(NC/C=C/S(=O)(=O)c1ccccc1F)c1cc2c([nH]c1=O)CCCC2` [Example 24, N-[(2E)-3-(2-fluorobenzenesulfonyl)prop-2-en-1-yl]-2-oxo-1,2,5,6,7,8-hexahydroquinoline-3-carboxamide], the concentration for half-maximal inhibition (IC50) is not above 1000 nM in experiment [1], not above 1000 nM in experiment [2] and not above 100 nM in experiment [3].

Consider `CC(C)(C)OC(=O)N1CCc2[nH]c(=O)c(C(=O)NC/C=C/S(=O)(=O)c3ccc(F)cc3)cc2C1` [Example 25, tert-butyl 3-{[(2E)-3-(4-fluorobenzenesulfonyl)prop-2-en-1-yl]carbamoyl}-2-oxo-1,2,5,6,7,8-hexahydro-1,6-naphthyridine-6-carboxylate], for which the results for the IC50 in experiment [1], in experiment [2] and in experiment [3] were not above 10000 nM, not above 1000 nM and not above 100 nM, respectively.

As to `CC(C)(C)c1ccc(S(=O)(=O)/C=C/CNC(=O)c2cc3c([nH]c2=O)CCCC3)cc1` [Example 50, N-[(2E)-3-(4-tert-butylbenzenesulfonyl)prop-2-en-1-yl]-2-oxo-1,2,5,6,7,8-hexahydroquinoline-3-carboxamide], the IC50 in experiment [2] and in experiment [3] was not above 10000 nM each time.

On to `COc1ccc(S(=N)(=O)/C=C/CNC(=O)c2cc3c([nH]c2=O)CCCC3)cc1` (stereo not drawn) [Example 57, N-[(2E)-3-[imino(4-methoxyphenyl)oxo-λ^6-sulfanyl]prop-2-en-1-yl]-2-oxo-1,2,5,6,7,8-hexahydroquinoline-3-carboxamide], for which the IC50 in experiment [1] and in experiment [2] was not above 1000 nM in each case.

Turning to `CC(C)(C)c1ccc(S(=N)(=O)/C=C/CNC(=O)c2cc3c([nH]c2=O)CCCC3)cc1` (stereo not drawn) [Example 61, N-[(2E)-3-[(4-tert-butylphenyl)(imino)oxo-λ^6-sulfanyl]prop-2-en-1-yl]-2-oxo-1,2,5,6,7,8-hexahydroquinoline-3-carboxamide], the IC50 in experiment [1] and in experiment [2] was not above 1000 nM throughout.

On to `CCOc1ccc(S(=N)(=O)/C=C/CNC(=O)c2cc3c([nH]c2=O)CCCC3)cc1` (stereo not drawn) [Example 62, N-[(2E)-3-[(4-ethoxyphenyl)(imino)oxo-λ^6-sulfanyl]prop-2-en-1-yl]-2-oxo-1,2,5,6,7,8-hexahydroquinoline-3-carboxamide], for which the IC50 in experiment [1] and in experiment [2] was not above 1000 nM throughout.

On to `CN(C)c1ccc(S(=N)(=O)/C=C/CNC(=O)c2cc3c([nH]c2=O)CCCC3)cc1` (stereo not drawn) [Example 141, N-[(2E)-3-{[4-(dimethylamino)phenyl](imino)oxo-λ^6-sulfanyl}prop-2-en-1-yl]-2-oxo-1,2,5,6,7,8-hexahydroquinoline-3-carboxamide], for which the IC50 in experiment [1] and in experiment [2] was not above 1000 nM each time.

As for `COc1ccc(S(=N)(=O)/C=C/CNC(=O)c2cc3c([nH]c2=O)CCC(C(C)C)C3)cc1F` (stereo not drawn) [Example 144, N-[(2E)-3-[(3-fluoro-4-methoxyphenyl)(imino)oxo-λ^6-sulfanyl]prop-2-en-1-yl]-2-oxo-6-(propan-2-yl)-1,2,5,6,7,8-hexahydroquinoline-3-carboxamide], the IC50 in experiment [1] and in experiment [2] was not above 1000 nM in each case.
